# Measurements published in patent publication US20240374726A1, “BAG6 SPECIFIC CHIMERIC ANTIGEN RECEPTOR, NUCLEIC ACID, BAG6 SPECIFIC CHIMERIC ANTIGEN RECEPTOR EXPRESSION PLASMID, BAG6 SPECIFIC CHIMERIC ANTIGEN RECEPTOR EXPRESSING CELL, USE THEREOF, AND PHARMACEUTICAL COMPOSITION FOR TREATING CANCER” (China Medical University Hospital, priority 2023, published 2024).
# “And” between values parts separate entries of the source, which are not always exact repeats. Equal entries are not always repeated.
# Key:
# Type in all cases: cell-based
# [1] = tested on: B7-H6 on the plasma membrane of the human ovarian cancer cell line SKOV3; assay: expression level of B7-H6, flow cytometry; conditions: carboplatin 20 μM, 48 hours, versus untreated control
# Description: (§1) To explore whether treatment with the chemotherapy drug affects the expression of BAG6, HLA-G and B7-H6 on the cell membrane of tumor cells, the tumor cells used were human breast cancer cell line MDA-MB-231, human malignant brain tumor cell line DBTRG-05MG (hereinafter referred to as DBTRG), human pancreatic cancer cell line AsPC-1, and human ovarian cancer cell line SKOV3. The tumor cells used were all purchased from the American Type Culture Collection (ATCC). The human breast cancer cell line MDA-MB-231 is a triple-negative breast cancer cell line, that is, the hormone receptor (ER, PR) and HER-2 receptor thereof are negative, and the human breast cancer cell line MDA-MB-231 was cultured in RPMI culture medium including 10% fetal bovine serum (FBS). The human malignant brain tumor cell line DBTRG was cultured in DMEM culture medium including 10% FBS. The human pancreatic cancer cell line AsPC-1 was cultured in RPMI culture medium including 10% FBS. The human ovarian cancer cell line SKOV3 was cultured in McCoy's 5A culture medium including 10% FBS.
# [2] = tested on: BAG6 on the plasma membrane of the human ovarian cancer cell line SKOV3; assay: expression level of BAG6, immunofluorescence staining and flow cytometry; conditions: carboplatin 20 μM, 48 hours, versus untreated control
# Description: as §1
# [3] = tested on: HLA-G on the plasma membrane of the human ovarian cancer cell line SKOV3; assay: expression level of HLA-G, flow cytometry; conditions: carboplatin 20 μM, 48 hours, versus untreated control
# Description: as §1
# [4] = tested on: B7-H6 on the plasma membrane of the human breast cancer cell line MDA-MB-231; assay: expression level of B7-H6, flow cytometry; conditions: doxorubicin 200 nM, 48 hours, versus untreated control
# Description: as §1
# [5] = tested on: BAG6 on the plasma membrane of the human breast cancer cell line MDA-MB-231; assay: expression level of BAG6, immunofluorescence staining and flow cytometry; conditions: doxorubicin 200 nM, 48 hours, versus untreated control
# Description: as §1
# [6] = tested on: HLA-G on the plasma membrane of the human breast cancer cell line MDA-MB-231; assay: expression level of HLA-G, flow cytometry; conditions: doxorubicin 200 nM, 48 hours, versus untreated control
# Description: as §1
# [7] = tested on: human malignant brain tumor cell line DBTRG; assay: tumor cell death, Annexin V-FITC/PI flow cytometry (cytotoxicity); conditions: group 1: chemotherapy drug alone, temozolomide 80 μg/mL, three independent trials
# Description: The cells were subsequently incubated for 48 hours. Each type of the tumor cells was divided into six groups. In a control, the tumor cells were untreated. In a group 1, the tumor cells were treated with the chemotherapy drug. In a group 2, the tumor cells were treated with the parental primary T lymphocyte. In a group 3, the tumor cells are treated with the parental primary T lymphocyte and the chemotherapy drug. In a group 4, the tumor cells were treated with Example 1. In a group 5, the tumor cells were treated with Example 1 and the chemotherapy drug. […] In the group 4 and the group 5, the number of Example 1 treated was 1×10^5 cells. […] The treated cells of each group were stained with Annexin V-FITC and propidium iodide (PI), and the apoptosis and the death of the tumor cells were detected by the flow cytometry. The sum of the percentage of cells stained with Annexin V-FITC and/or PI were calculated to obtain the cytotoxicity. The results of the cytotoxicity were counted after three independent trials in each group.
# The cells were subsequently incubated for 48 hours. […] The treated cells of each group were stained with Annexin V-FITC and PI, and the apoptosis and the death of the tumor cells were detected by the flow cytometry. The sum of the percentage of cells stained with Annexin V-FITC and/or PI were calculated to obtain the cytotoxicity. […]
structure (smiles),measurement,setting,value
N.N.O=C([O-])C1(C(=O)[O-])CCC1.[Pt+2] [carboplatin],expression of B7-H6 on the plasma membrane,[1],increase the expression of B7-H6
same,expression of BAG6 on the plasma membrane,[2],increase the expression of BAG6
same,expression of HLA-G on the plasma membrane,[3],increase the expression of HLA-G
COc1cccc2c1C(=O)c1c(O)c3c(c(O)c1C2=O)C[C@@](O)(C(=O)CO)C[C@@H]3O[C@H]1C[C@H](N)[C@H](O)[C@H](C)O1 [doxorubicin],expression of B7-H6 on the plasma membrane,[4],increase the expression of B7-H6
same,expression of BAG6 on the plasma membrane,[5],increase the expression of BAG6
same,expression of HLA-G on the plasma membrane,[6],increase the expression of HLA-G
Cn1nnc2c(C(N)=O)ncn2c1=O [temozolomide],death rate,[7],8.4033% and 14.9267% and 5.5450% and 11.7933% and 13.9750%
